Literature values, collected in patent US20170224835A1, “Antibody Drug Conjugates” (priority 2015, published 2017).
Read-outs that look alike come from different tables or passages of the source.

Tests used:
[1] = in vitro
[2] = system: in vivo tumor models

| Structure (SMILES) | cytotoxicity / cell killing compared with other anthracyclines [1] | cytotoxicity / cell killing compared with other anthracyclines ([1]; listed as PNU (159682)) | efficacy in in vivo tumor models [2] |
| --- | --- | --- | --- |
| COc1cccc2c1C(=O)c1c(O)c3c(c(O)c1C2=O)C[C@@](O)(C(=O)CO)C[C@@H]3O[C@H]1C[C@H](N2CCO[C@H](OC)C2)[C@H](O)[C@H](C)O1 [Nemorubicin, (8S,10S)-6,8,11-trihydroxy-10-((2R,4S,5S,6S)-5-hydroxy-4-((S)-2-methoxymorpholino)-6-methyltetrahydro-2H-pyran-2-yloxy)-8-(2-hydroxyacetyl)-1-methoxy-7,8,9,10-tetrahydrotetracene-5,12-dione] | more potent cell killing property | – | – |
| COc1cccc2c1C(=O)c1c(O)c3c(c(O)c1C2=O)C[C@@](O)(C(=O)CO)C[C@@H]3O[C@H]1C[C@H]2[C@H](O[C@@H]3[C@@H](OC)OCCN32)[C@H](C)O1 [PNU-159682, 3′-deamino-3″,4′-anhydro-[2″(S)-methoxy-3″(R)-oxy-4″-morpholinyl]doxorubicin] | significantly more cytotoxic than Nemorubicin | more cytotoxic than nemorubicin and doxorubicin | effective |
